Entries after “also recorded” stand apart in the source; their conditions may differ. Read-outs that look alike come from different tables or passages of the source.
Tests used:
[1] = test system: hilA; type: cell-based, Salmonella Typhimurium
[2] = biological target: wild type HilD (Salmonella typhimurium, UniProt P0CL08); type: cell-based; conditions: 20 μM, wild type HilD strain
[3] = biological target: HilD mutant K293A (Salmonella typhimurium, UniProt P0CL08, K293A); type: cell-based; conditions: 20 μM
[4] = biological target: HilD mutant K294A (Salmonella typhimurium, UniProt P0CL08, K294A); type: cell-based; conditions: 20 μM
[5] = test system: Salmonella SPI1 expression (sicA-GFP); type: in vivo, mice
[6] = biological target: T1, HilD (Salmonella typhimurium, UniProt P0CL08); type: cell-based; conditions: lon mutant
[7] = test system: hilA; type: cell-based, Salmonella; conditions: absence of lon, 20 μM
[8] = biological target: T1, HilD; type: binding
[9] = biological target: HilC (Salmonella typhimurium, UniProt P0CL09); type: binding
[10] = test system: RtsA; type: binding, Salmonella

Chain of HilD mutant K293A (P0CL08 whole entry K293A, looked up): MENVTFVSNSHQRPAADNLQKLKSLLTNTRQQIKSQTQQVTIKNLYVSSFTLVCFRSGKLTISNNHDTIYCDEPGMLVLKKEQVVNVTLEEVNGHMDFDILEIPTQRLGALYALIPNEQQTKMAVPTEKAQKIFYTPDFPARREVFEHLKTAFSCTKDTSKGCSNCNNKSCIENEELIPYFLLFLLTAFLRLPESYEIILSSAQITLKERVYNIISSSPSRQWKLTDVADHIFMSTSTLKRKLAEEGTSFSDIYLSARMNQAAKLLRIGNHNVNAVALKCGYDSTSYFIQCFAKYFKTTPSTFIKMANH
Chain of HilC (P0CL09 whole entry): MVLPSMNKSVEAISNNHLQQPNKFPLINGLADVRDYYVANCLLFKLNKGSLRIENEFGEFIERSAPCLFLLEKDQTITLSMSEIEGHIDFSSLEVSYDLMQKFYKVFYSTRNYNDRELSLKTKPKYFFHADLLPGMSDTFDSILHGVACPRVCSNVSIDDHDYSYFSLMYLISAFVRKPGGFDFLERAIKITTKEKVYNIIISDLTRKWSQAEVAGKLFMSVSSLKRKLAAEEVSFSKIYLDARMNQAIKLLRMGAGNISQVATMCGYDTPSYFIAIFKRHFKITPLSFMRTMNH
T1 sequence (P0CL08 whole entry): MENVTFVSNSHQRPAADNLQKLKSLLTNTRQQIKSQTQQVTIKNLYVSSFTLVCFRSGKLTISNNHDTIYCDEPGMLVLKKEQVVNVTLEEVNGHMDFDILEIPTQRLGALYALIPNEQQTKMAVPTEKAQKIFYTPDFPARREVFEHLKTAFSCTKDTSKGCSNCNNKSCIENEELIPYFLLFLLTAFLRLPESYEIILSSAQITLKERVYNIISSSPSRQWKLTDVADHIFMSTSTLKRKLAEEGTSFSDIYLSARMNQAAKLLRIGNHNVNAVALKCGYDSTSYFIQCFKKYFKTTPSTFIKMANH
Chain of wild type HilD (P0CL08 whole entry): as above
Chain of HilD mutant K294A (P0CL08 whole entry K294A, looked up): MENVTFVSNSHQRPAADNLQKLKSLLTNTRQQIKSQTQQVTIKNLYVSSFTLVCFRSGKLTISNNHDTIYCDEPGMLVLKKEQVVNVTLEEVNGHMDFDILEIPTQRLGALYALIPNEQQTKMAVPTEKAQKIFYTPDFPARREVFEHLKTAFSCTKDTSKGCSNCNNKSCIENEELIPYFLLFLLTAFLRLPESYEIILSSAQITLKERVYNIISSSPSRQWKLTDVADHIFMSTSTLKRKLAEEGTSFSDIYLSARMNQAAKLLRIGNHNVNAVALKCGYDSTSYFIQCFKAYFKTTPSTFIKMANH

SMILES	hilA (invasion gene) expression [1]	reduction of sipB expression [2]	reduction of sipB expression [3]	reduction of sipB expression [4]	percentage of Salmonella expressing SPI in the gut ([5]; mice n=5/group, P<0.01 vs control)	reduction of percentage of bacteria expressing an invasion gene in the caecum ([5]; mice, 1.5 mM in drinking water, hilD UTR A25G strain)	effect on HilD stability [6]	hilA expression [7]	binding of HilD to hilA promoter ([8]; 20 μM, 10 nM DNA, 150 μM protein)	binding of HilD to hilA promoter ([8]; 20 μM, 10 nM DNA, 150 μM protein, listed as cis-2-hexadecenoic acid)	binding of HilD to hilA promoter ([8]; 1, 2, 5 and 10 μM)	binding of HilD to hilA promoter ([8]; 1, 2, 5 and 10 μM, listed as cis-2-hexadecenoic acid)	binding of HilC to hilA promoter ([9]; 100 μM)	binding of HilC to hilA promoter ([9]; 100 μM, listed as cis-2-hexadecenoic acid)	binding of HilC to hilA promoter ([9]; 10, 25, 50 and 75 μM)	binding of HilC to hilA promoter ([9]; 10, 25, 50 and 75 μM, listed as cis-2-hexadecenoic acid)	binding of RtsA to hilA promoter [10]
CCCCCCCCC/C=C\C(=O)O [2-cis-dodecenoic acid, (Z)-dodec-2-enoic acid]	reduced expression to a lesser degree	4.1 fold	no significant reduction	no significant reduction	–	–	–	–	–	–	–	–	–	–	–	–	–
CCCCCCCCCCCCC/C=C/C(=O)O [2-trans-hexadecenoic acid, reference compound]	–	5.2 fold	4.7 fold	4.5 fold	–	–	–	–	–	–	–	–	–	–	–	–	–
CCCCCCCCCCCCC/C=C\C(=O)O [2-cis-hexadecenoic acid, (Z)-hexadec-2-enoic acid]	reduced expression to a lesser degree	~11 fold	No significant repression	No significant repression	reduces the percentage	2 fold	no effect	continued to repress	prevented the binding	completely inhibited from binding	partially inhibited binding	did so partially	preventing binding	prevented binding	partially inhibited binding	did so partially	preventing binding; also recorded: partially inhibited binding; also recorded: prevented binding; also recorded: did so partially
